Experiment [1] addresses USP1/UAF1 (Homo sapiens, UniProt O94782). In words: Assay on USP1/UAF1 enzymatic inhibitory activity (Ub-Rhodamine). The format is biochemical. The conditions noted are these: USP1/UAF1 protein 10 nM, Ub-Rhodamine 300 nM, 30 min pre-incubation, 90 min reaction. As to the method: A USP1/UAF1 protein solution (with a concentration of 10 nM) was added to assay wells at 10 µL/well, and different compounds dissolved in DMSO were separately added to the assay wells using a nanoliter pipettor, such that the final concentrations of the compounds were 1000 nM-0.24 nM. The wells were set in duplicate, and a control well was set. After incubation of the system described above at room temperature for 30 min, Ub-Rhodamine (with a concentration of 300 nM) was added to the assay wells at 10 µL/well. The mixtures were reacted at room temperature for 90 min, and then the plate was read using a PerkinElmer Envision multifunctional microplate reader (Ex. 490 nm/Em. 520 nm). IC50 was calculated by four-parameter fitting.

For experiment [2], the system named is MDA-MB-436 cells. Briefly: Assay on inhibitory activity for MDA-MB-436 cell proliferation (CCK-8). The format is cell-based. The conditions noted are these: Homo sapiens, 168 h, 7 days of incubation, CCK-8, absorbance at 450 nm. The protocol: MDA-MB-436 cells in a good growth state were collected into a centrifuge tube, adjusted to a cell density of 10^4 cells/mL, and seeded in a 96-well plate (100 µL/well), and the plate was incubated overnight in a cell incubator. Compounds were added using a nanoliter pipettor, such that the final concentrations of the compounds were 1000 nM-0.457 nM. The wells were set in duplicate, and a control well was set. After another 7 days of incubation in the cell incubator, the detection reagent CCK-8 (manufacturer: Dojindo Laboratories; 10 µL/well) was added. After 2 h of incubation in the cell incubator, absorbance values were detected at 450 nm using an Envision microplate reader, the four-parameter analysis was performed, the dose-response curves were fit, and IC50 was calculated. The experimental results are shown in Table 1, where A represents 0 nM < IC50 ≤ 50 nM; B represents 50 nM < IC50 ≤ 100 nM; C represents 100 nM < IC50 ≤ 1000 nM; and D represents 1000 nM < IC50. Table 1. Inhibitory activity for MDA-MB-436 cell proliferation

USP1/UAF1, sequence (O94782 whole entry): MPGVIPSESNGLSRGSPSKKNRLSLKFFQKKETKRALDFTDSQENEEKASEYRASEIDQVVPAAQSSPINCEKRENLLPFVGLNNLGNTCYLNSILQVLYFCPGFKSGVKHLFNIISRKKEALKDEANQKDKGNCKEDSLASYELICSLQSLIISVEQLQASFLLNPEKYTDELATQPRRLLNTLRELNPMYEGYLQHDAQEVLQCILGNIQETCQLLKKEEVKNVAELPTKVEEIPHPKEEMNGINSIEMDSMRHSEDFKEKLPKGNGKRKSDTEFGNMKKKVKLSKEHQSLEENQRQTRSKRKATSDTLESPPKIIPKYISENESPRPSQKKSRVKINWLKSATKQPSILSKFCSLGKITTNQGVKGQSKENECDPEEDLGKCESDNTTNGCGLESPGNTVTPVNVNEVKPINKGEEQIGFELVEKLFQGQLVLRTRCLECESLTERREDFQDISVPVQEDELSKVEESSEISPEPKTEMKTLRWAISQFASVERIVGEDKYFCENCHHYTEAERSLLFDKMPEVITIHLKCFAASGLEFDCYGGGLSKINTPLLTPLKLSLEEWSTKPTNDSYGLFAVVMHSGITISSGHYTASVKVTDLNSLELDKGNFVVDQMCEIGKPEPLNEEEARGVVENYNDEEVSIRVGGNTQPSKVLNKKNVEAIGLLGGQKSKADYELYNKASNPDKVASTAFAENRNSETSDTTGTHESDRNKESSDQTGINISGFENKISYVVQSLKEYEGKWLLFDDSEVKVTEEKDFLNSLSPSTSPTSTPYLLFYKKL
USP1/UAF1, sequence (Q8TAF3 whole entry partner): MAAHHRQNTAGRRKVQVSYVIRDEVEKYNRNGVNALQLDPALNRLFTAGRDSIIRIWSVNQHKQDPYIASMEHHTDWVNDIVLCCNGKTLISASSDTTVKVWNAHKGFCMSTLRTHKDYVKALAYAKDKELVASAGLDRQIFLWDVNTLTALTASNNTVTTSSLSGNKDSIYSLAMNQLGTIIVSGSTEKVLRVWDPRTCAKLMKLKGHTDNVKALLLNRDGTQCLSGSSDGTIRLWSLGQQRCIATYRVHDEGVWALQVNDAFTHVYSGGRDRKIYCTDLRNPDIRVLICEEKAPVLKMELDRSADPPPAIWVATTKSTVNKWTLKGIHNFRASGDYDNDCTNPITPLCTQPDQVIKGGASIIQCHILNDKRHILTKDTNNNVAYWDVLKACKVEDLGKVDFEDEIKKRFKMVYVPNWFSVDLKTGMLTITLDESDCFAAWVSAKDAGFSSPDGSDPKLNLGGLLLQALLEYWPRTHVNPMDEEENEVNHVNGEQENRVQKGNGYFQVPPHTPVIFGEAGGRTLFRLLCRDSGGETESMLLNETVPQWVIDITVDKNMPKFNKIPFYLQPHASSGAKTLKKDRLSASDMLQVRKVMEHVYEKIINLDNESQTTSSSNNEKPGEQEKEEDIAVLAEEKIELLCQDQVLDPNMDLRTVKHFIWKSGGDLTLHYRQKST

Usually IC50 stands for the concentration that gives 50% inhibition. A low value points to greater potency in that assay. On to `[2H]C([2H])([2H])n1c(=O)n(Cc2ccc(-n3nc(C(C)(F)F)cc3C)cc2)c2c(F)c(-c3c(OC)ncnc3C3CC3)ncc21` [Example 17], for which the IC50 in experiment [1] and in experiment [2] was 0.05 to 0.1 µM throughout.

Turning to `[2H]C([2H])([2H])n1c(=O)n(Cc2ccc(-n3nc(C(F)(F)F)cc3C)cc2)c2c(F)c(-c3c(OC)ncnc3C3CC3)ncc21` [Example 15], the IC50 in experiment [1] is below 0.05 µM; in experiment [2], 0.05 to 0.1 µM.

Turning to `[2H]C([2H])([2H])n1c(=O)n(Cc2ccc(-c3nc(C(F)(F)F)cn3C(C)C)cc2)c2c(F)c(-c3c(OC)ncnc3C3CC3)ncc21` [Example 16], the IC50 in experiment [1] and in experiment [2] was below 0.05 µM in each case.

As for `COc1ncnc(C2CC2)c1-c1ncc2c(c1F)n(Cc1ccc(-c3nc(C(F)(F)F)cn3C)cc1)c(=O)n2C` [Example 3], the IC50 in experiment [1] and in experiment [2] was below 0.05 µM throughout.

The values above are taken from EP4592290A1, “CARBONYL FUSED HETEROCYCLIC DERIVATIVE USED AS UBIQUITIN-SPECIFIC PROTEASE INHIBITOR” (Chia Tai Tianqing Pharmaceutical Group Co., Ltd., priority 2022, dated 2024).
